Reference: ChEMBL document CHEMBL1134671, “Novel lead generation through hypothetical pharmacophore three-dimensional database searching: discovery of isoflavonoids as nonsteroidal inhibitors of rat 5 alpha-reductase” (J Med Chem, 2001)

Target: T1, Steroid 5-alpha-reductase (Rattus norvegicus, UniProt P24008+P31214)
T1 sequence (P24008 whole entry): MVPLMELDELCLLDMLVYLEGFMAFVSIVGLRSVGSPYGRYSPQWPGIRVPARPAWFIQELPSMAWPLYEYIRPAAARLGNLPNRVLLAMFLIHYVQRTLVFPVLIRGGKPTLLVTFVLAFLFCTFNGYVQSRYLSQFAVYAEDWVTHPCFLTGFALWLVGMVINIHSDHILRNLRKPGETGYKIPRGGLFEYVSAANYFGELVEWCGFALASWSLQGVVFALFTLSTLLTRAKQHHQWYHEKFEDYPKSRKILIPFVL
T1 sequence (P31214 whole entry): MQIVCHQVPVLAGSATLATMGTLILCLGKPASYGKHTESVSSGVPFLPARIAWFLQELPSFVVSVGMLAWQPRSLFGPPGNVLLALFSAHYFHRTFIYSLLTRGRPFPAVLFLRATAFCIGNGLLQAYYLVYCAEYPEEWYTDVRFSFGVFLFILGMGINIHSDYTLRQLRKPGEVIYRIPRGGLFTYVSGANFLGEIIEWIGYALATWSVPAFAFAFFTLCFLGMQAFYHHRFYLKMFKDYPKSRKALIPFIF
Assay: Inhibitory concentration against rat Steroid 5-alpha-reductase
Format: protein assay

Compound | IC50 [µM]
CC(C)(O)C1Cc2c(ccc(-c3coc4cc(O)cc(O)c4c3=O)c2O)O1 (stereo not drawn) | 23.1
COc1cc2c(c3occ(-c4ccc(OCc5ccccc5)cc4OCc4ccccc4)c(=O)c13)C(=O)CC(C)(C)O2 | 31
CC(C)(O)C1Cc2c(O)ccc(-c3coc4cc(O)cc(O)c4c3=O)c2O1 (stereo not drawn) | 6.9
C=C(C)C1Cc2c(cc3occ(-c4ccc(O)cc4O)c(=O)c3c2O)O1 (stereo not drawn) | 15.7
COc1ccc(-c2coc3c4c(cc(OC)c3c2=O)OC(C)(C)C=C4)c(OC)c1 | 30.1
CC(C)(O)C1Cc2c(ccc(-c3coc4cc5c(c(O)c4c3=O)CC(C(C)(C)O)O5)c2O)O1 (stereo not drawn) | 26.2
COc1cc2c(cc1OC)-c1c(oc3c4c(cc(O)c3c1=O)OC(C)(C)C=C4)CO2 | 48.7
COc1cc2c(c3occ(-c4ccc(OCc5ccccc5)cc4OCc4ccccc4)c(=O)c13)C=CC(C)(C)O2 | 27.4
